In patent publication US6943171B2, “Polycyclic guanine derivative phosphodiesterase V inhibitors” (Schering Corporation, priority 2001, dated 2005):

Target: PDE V isoenzyme (Homo sapiens, UniProt O76074)
Assay: PDE V isoenzyme inhibition (PDE V IC50)
Format: biochemical
Details: bound printed as 'about <'
Text: The compounds of the invention can be useful for inhibiting PDE V isoenzymes. Isoenzyme activity (potency) and isoenzyme selectivity for a compound can be evaluated in a number of ways. […] Similarly, an IC50 value may be obtained for other PDE isoenzymes, such as the PDE VI isoenzyme. Isoenzyme selectivity in this respect may be defined as the activity (potency) of a PDE inhibitor compound for a particular PDE isoenzyme as opposed to another PDE isoenzyme, for example, the activity of a compound to inhibit a PDE V isoenzyme compared to the activity of the same compound to inhibit a PDE VI isoenzyme.

IC50 [nM] | Structure (SMILES)
< 4.1 | CCN1C(=O)c2c(nc(Br)n2Cc2ccc(OC)c(Br)c2)N2C[C@@H](Cc3ccccc3)N=C12 [Compound 1.3.2]
< 2.2 | CCOc1nc2c(n1Cc1ccc(OC)c(Cl)c1)C(=O)N(CC)C1=N[C@H](Cc3ccccc3)CN12 [Compound 1]
< 1.6 | CCN1C(=O)c2c(nc(OC)n2Cc2ccc(OC)c(Cl)c2)N2C[C@@H](Cc3ccccc3)N=C12 [Compound 2]
< 4.1 | CCN1C(=O)c2c(nc(OC)n2Cc2ccc(OC)c(Br)c2)N2C[C@@H](Cc3ccccc3)N=C12 [Compound 3]
< 1.6 | CCN1C(=O)c2c(nc(Br)n2Cc2ccc(O)c(Br)c2)N2C1=N[C@@H]1CCC[C@@H]12 [Compound 4]
< 1.6 | CCN1C(=O)c2c(nc(OC)n2Cc2ccc(O)c(Br)c2)N2C1=N[C@@H]1CCC[C@@H]12 [Compound 5]
< 4.1 | CCN1C(=O)c2c(nc(OC)n2Cc2ccc(O)c(Cl)c2)N2C1=N[C@@H]1CCC[C@@H]12 [Compound 6]
< 2.5 | CCN1C(=O)c2c(nc(OC)n2Cc2ccc(O)cc2)N2C[C@@H](Cc3ccccc3)N=C12 [Compound 8]
< 4.1 | CCN1C(=O)c2c(nc(C(=O)NC)n2Cc2ccc(O)c(Cl)c2)N2C[C@@H](Cc3ccccc3)N=C12 [Compound 9]
< 4.1 | CCN1C(=O)c2c(nc(C(N)=O)n2Cc2ccc(O)c(Cl)c2)N2C[C@@H](Cc3ccccc3)N=C12 [Compound 10]
< 1.6 | CCN1C(=O)c2c(nc(C(=O)OC)n2Cc2ccc(O)c(Cl)c2)N2C[C@@H](Cc3ccccc3)N=C12 [Compound 11]
< 4.1 | CCN1C(=O)c2c(nc(Br)n2Cc2ccc(O)c(Cl)c2)N2C[C@@H](Cc3ccccc3)N=C12 [Compound 12]
< 4.1 | CCN1C(=O)c2c(nc(Br)n2Cc2ccc(O)c(Br)c2)N2C[C@@H](Cc3ccccc3)N=C12 [Compound 13]
< 4.1 | CCN1C(=O)c2c(nc(Cl)n2Cc2ccc(O)cc2)N2C[C@@H](Cc3ccccc3)N=C12 [Compound 15]
< 1.6 | CCOc1nc2c(n1Cc1ccc(O)c(Cl)c1)C(=O)N(CC)C1=N[C@H](Cc3ccccc3)CN12 [Compound 16]
< 1.6 | CCN1C(=O)c2c(nc(OC)n2Cc2ccc(O)c(Cl)c2)N2C[C@@H](Cc3ccccc3)N=C12 [Compound 17]
< 1.6 | CCN1C(=O)c2c(nc(OC)n2Cc2ccc(O)c(Br)c2)N2C[C@@H](Cc3ccccc3)N=C12 [Compound 18]
< 4.1 | CCOc1nc2c(n1Cc1ccc(O)c(Cl)c1)C(=O)N(CC)C1=N[C@H](C(C)C)CN12 [Compound 19]
< 2.2 | CCN1C(=O)c2c(nc(Br)n2Cc2ccc(O)c(Cl)c2)N2C[C@@H](Cc3ccc(F)cc3)N=C12 [Compound 21]
< 4.1 | CCOc1nc2c(n1Cc1ccc(O)c(Br)c1)C(=O)N(CC)C1=N[C@H](Cc3ccccc3F)CN12 [Compound 22]
< 4.1 | CCN1C(=O)c2c(nc(Br)n2Cc2ccc(O)c(Br)c2)N2C[C@@H](Cc3cccc(F)c3)N=C12 [Compound 23]
